Experimental data from US7645740B2, “Peptide sequence found in Laminin 5 for treating skin impairments” (Laboratoires d'Anjou Centre National de la Recherche …, priority 2004, dated 2010).

How the values were obtained:
[1] = tested on: HBL100 cells; assay: Cell proliferation test (XTT), HBL100; type: cell-based, human; settings: HBL100, peptide 0.5% and 1%, serum-free medium, 5th hour
Procedure: (§1) HT1080 cells (A) and HBL100 cells (B) were seeded in 96-well plates at a rate of 10,000 cells per well. After 24 hours, the culture medium was removed and replaced with serum-free medium containing the peptide quantities given in the graphs and reagent XTT. The plates were then placed in the incubator at 37° C. and absorbance readings were taken at 1 h, 2 h, 3 h, 4 h and 5 h. Peptide-free controls were carried out on the same plate.
(§2) The effect of the peptide on cell proliferation was analysed with the aid of a calorimetric test (Cell Proliferation Kit XTT, Roche Diagnostics, Meylan, France) on the cells use for the cell adhesion test, i.e. HT1080, A431, HBL100 cells and normal human keratinocytes from young and elderly individuals.
(§3) The chemical reaction used in the test is based on the production of NADPH by living cells, leading to the reduction of yellow tetrazolium XTT salts to orange formazan salts. Absorbance was measured at 490 nm using an ELISA plate reader. Cells were seeded in 96-well plates at a rate of 10,000 cells per well (6 wells/condition) in KBM-2 culture medium. After 24 hours in culture at 37° C. with 5% CO2, the culture medium was removed and replaced with serum-free medium containing the peptide quantities given in the graphs and the test reagent. The plates were then placed in the incubator at 37° C. and absorbance readings were taken at 1 h, 2 h, 3 h, 4 h and 5 h. […]

[2] = tested on: A431 cells; assay: Cell proliferation test (XTT), A431; type: cell-based; settings: A431, peptide 0.5% and 1%, serum-free medium, 5th hour
Procedure: as §1, with “A431” for “HT1080”, “cells” for “cells (A) and HBL100 cells (B)”
as §2
The chemical reaction used in the test is based on the production of NADPH by living cells, leading to the reduction of yellow tetrazolium XTT salts to orange formazan salts. Absorbance was measured at 490 nm using an ELISA plate reader. […] After 24 hours in culture at 37° C. with 5% CO2, the culture medium was removed and replaced with serum-free medium containing the peptide quantities given in the graphs and the test reagent. The plates were then placed in the incubator at 37° C. and absorbance readings were taken at 1 h, 2 h, 3 h, 4 h and 5 h. […] In this case, cell viability was calculated according to the following formula: % viability=(Abs. Cells with peptide/Abs. Control cells)×100.

[3] = tested on: NHK-young; assay: Cell proliferation test (XTT), NHK-young; type: cell-based, human; settings: peptide 0.05% and 0.1%, 5th hour
Procedure: as §1, with “NHK-10 years” for “HT1080 cells (A)”, “NHK-71 years” for “HBL100 cells (B)”
as §2, §3

[4] = tested on: NHKs; assay: Effect of the peptide in soluble form on keratinocyte behaviour in culture; type: cell-based, human
Procedure: NHKs were seeded in 12-well plates at a rate of 5,000 cells per well. After 24 hours, the culture medium was removed and replaced with new medium containing 5%, 2.5%, 1.25%, 0.6% and 0.3% peptide (B—F). A peptide-free control was carried. The plates were then placed in the incubator at 37° C. for 48 hours. Observations were made with an Axiovert 40 Zeiss microscope. Bar=50 μm
Observation at higher magnification of the cell colonies described in FIG. 6 using an Axiovert 40 Zeiss microscope equipped with a PlasDisc interferential block. Bar=50 μm
Keratinocytes were seeded in 12-well plates (Costar) at a rate of 5,000 cells per well in KBM-2 medium. After 24 hours in culture at 37° C. with 5% CO2, the culture medium was removed and replaced with KBM-2 medium containing the peptide quantities given in the figures (a peptide-free control was also carried out). After 24 hours in culture, the same quantity of peptide was added to the culture medium and the experiment was stopped after a further 24 hours in culture. Microscope analyse was carried out without preliminary fixation using an Axiovert 40 Zeiss microscope coupled to a Coolsnap camera (Roper Scientific, Evry, France).

[5] = tested on: NHKs; assay: Cell adhesion of NHKs to peptides co-immobilized with laminin 5; type: cell-based, human
Procedure: Peptides 1, 2 and 3 (variable quantities indicated) and laminin 5 (fixed quantity 0.2 mg) were co-immobilized in 96-well plates. 5×104 NHKs were deposited in each well and plates were incubated at 37° C. for 1 hour. After washing, attached cells were fixed and cell adhesion was measured as described in the methodology section. Cell adhesion in the presence of the peptide is given as a percentage of cell adhesion obtained with laminin 5 alone. Cells were observed by phase contrast microscopy then photographed. Bar=50 μm.
A decreasing range of LN5 (prepared in the laboratory) and COL4 (BD Biosciences, Le Pont de Claix, France) quantities was made up by successive dilution in PBS. These solutions were immediately distributed into a 96-well culture plate (Costar) at a rate of 100 μl per well. The experiment was conducted in exactly the same way as the experiment described in example 2. The results are given in the form of a graph with the absorbance values representing adhesion on the ordinate and the various substrate concentrations on the abscissa. Attached cells were photographed by phase contrast microscopy.
In order to analyse the effect of the peptide on cell adhesion to DEJ proteins, peptide TALRIRATYGEY (SEQ ID NO.1) (peptide 1) was co-immobilized with LN5 (FIG. 14) and COL4 (FIG. 15). The fixed quantity of matrix protein (LN5 and COL4) and the variable quantity of peptide are given on the graph (FIGS. 14 and 15). Peptides 2 and 3 (described in example 1) were used as controls for the experiment. The adhesion tests were carried out with NHK under the same conditions as the experiment given in FIG. 13 (50,000 cells per well). A peptide-free control representing 100% adhesion (LN5 only and COL4 only) was used to allow analysis of the effect of adhesion relating to the presence of the peptide. The results are given as a percentage of this control.

## TALRIRATYGEY (Human laminin 5) [Peptide 1]
[1]
  mean increase in cell proliferation compared to the control: 8%
[2]
  mean increase in cell proliferation compared to the control: 8%
[3]
  mean increase in proliferation compared to the control: ≤ 7%
[4]; NHKs cultured with the peptide, higher magnification (FIG. 12)
  cell morphology vs control cells: no morphological difference
[4]; NHKs, 5%, 2.5%, 1.25%, 0.6% and 0.3% peptide in medium, 48 hours, vs peptide-free control
  effect of peptide added to culture medium on colony formation: faster formation of cohesive colonies
[5]; laminin 5 fixed quantity 0.2 mg, 50,000 cells per well, percentage of LN5 alone
  effect on adhesion of NHKs to LN5 (co-immobilized): gradual and significant increase
[5]; peptide quantity of 0.21 to 0.87 μg/well, LN5 alone = 100%
  change of adhesion to LN5, on average: doubled
